Results on 16 molecules are retold here after publication PMC8008393, “Preclinical Lead Optimization of a 1,2,4-Triazole Based Tankyrase Inhibitor” (Journal of Medicinal Chemistry, 2020).

For data set [1], the system named is WNT/β-catenin signaling pathway reporter in HEK293 cells. The data set can be described thus: cells. In kind it is cell-based, human. The following applies: for activity in words: assay not given (TNKS2 / HEK293), Supplementary Table 1; for IC50: Homo sapiens, HEK293, read-out: HEK293 IC50, WNT/β-catenin reporter. The procedure:
(§1) In the first round of the optimization campaign, we prepared single-point modifications changing any of the four regions in 1 (Figure 1) while leaving the other regions constant. In the following stages of the optimization campaign, additional East, West, and South moieties were also utilized, combining the best structural elements of the first single-point modification round. For the optimization, in vitro ADME properties and solubility of selected compounds were measured.

Data set [2] is described as follows: microsomal stability, mouse liver microsomes. The settings on record: for half-life at 1 μM: pH 7.4, read-out: Microsomal stability t1/2 mouse. In kind it is in vitro ADME. The procedure:
(§2) Test compounds in DMSO (10 mM) were further diluted to 100 μM in acetonitrile. Human or mouse liver microsomes (BioIVT) from selected species are incubated in duplicate with the test compound at a final concentration of 1 μM in 0.1 M potassium phosphate buffer (pH 7.4) containing 3.3 mM MgCl2, 0.5 mg/mL microsomal protein, in the presence or absence of NADPH (1 mM). Incubations were performed at 37 °C in a total volume of 500 μL. Control incubations with reference substances were included for each experiment. At t = 0, 5, 15, 30, 45 min, an amount of 50 μL of the incubation mixture was transferred to a quench plate containing acetonitrile and internal standard (200 nM labetalol) cooled at 4 °C. After the last time point, the quench plates are mixed thoroughly and centrifuged for 15 min at 3700 rpm and 10 °C (Eppendorf 5804R). The supernatant was transferred to a 96-well plate and analyzed by LCMS (Vanquish Horizon UHPLC equipped with a diode array detector coupled to a Q Exactive focus hybrid quadrupole-Orbitrap mass spectrometer). The metabolic stability is evaluated by plotting the natural logarithm of the percentage test compound remaining versus time and performing linear regression.

In data set [3] the test system is PARPs/ARTDs ARTD1/2/3/4/7/8/10/12. The data set can be described thus: PARP/ARTD family selectivity, biochemical assays.
Another data set in a line: in vivo. As for the experimental part:
as §1
The pharmacokinetical analyses in mice were performed according to the standard protocols of Medicilon and, as previously described,[9] using 3 animals per treatment group using 5% DMSO, 50% PEG400 (both Sigma-Aldrich) and 45% saline as vehicle.

The nature of data set [4]: microsomal stability, human liver microsomes. The class given is in vitro ADME. The settings on record: for half-life at 1 μM: pH 7.4, read-out: Microsomal stability t1/2 human. The procedure: as §2
In general terms: Liver microsomes are a subcellular fraction often used to study metabolism.

The nature of data set [5]: hepatocyte stability, human. The class given is in vitro ADME. The following applies: hepatocytes. As for the experimental part: (§3) Kinetic solubility assay was performed following standard protocols of Mercachem. The following assays were performed according to the standard protocols of Cyprotex: Caco-2 permeability, dog microsomal stability, hepatocyte stability (human, mouse, dog, rat, and cynomolgus), CYP3A4 inhibition, mouse plasma stability, mouse plasma protein binding, and Ames test.

A short description of a further data set: kinetic solubility assay. In kind it is physicochemical. The following applies: for solubility: Table 2. The procedure:
as §3

The target of a further data set is T1, CYP3A4 (Homo sapiens, UniProt P08684).
T1 construct: Cyprotex
The data set can be described thus: CYP3A4 inhibition. In kind it is in vitro ADME. The procedure:
as §3

A further data set is described as follows: Caco-2 permeability. The class given is in vitro ADME. The following applies: human. The procedure: as §3
A further data set concerns the target T2, TNKS2 (Homo sapiens, UniProt Q9H2K2).
T2 construct: TNKS2 (residues 873–1162); made in house
T2 sequence (Q9H2K2 873-1162): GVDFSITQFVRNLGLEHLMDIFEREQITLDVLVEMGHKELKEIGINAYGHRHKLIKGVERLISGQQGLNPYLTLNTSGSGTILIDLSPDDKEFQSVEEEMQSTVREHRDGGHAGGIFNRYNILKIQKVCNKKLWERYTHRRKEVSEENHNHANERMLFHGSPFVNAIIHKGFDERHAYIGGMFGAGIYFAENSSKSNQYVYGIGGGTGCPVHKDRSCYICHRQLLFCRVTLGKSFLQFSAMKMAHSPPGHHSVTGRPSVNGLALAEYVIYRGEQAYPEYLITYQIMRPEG
The class given is biochemical. The procedure:
as §1
Human tankyrase active constructs for TNKS1 (residues 1030–1317) and TNKS2 (residues 873–1162) and other ARTD/PARP enzymes used in the assays were expressed and purified as previously described.[34],[35] The enzymatic assay is based on the measurement of unreacted NAD^+, which is chemically converted into a fluorescent compound.[36] The fluorescence intensity was measured with excitation/emission wavelengths of 372 and 444 nm, respectively, using Tecan Infinity M1000 Pro. The compounds were prepared in half log dilution series and the reactions were done in quadruplicates with protein and compound controls to exclude the effect of compound autofluorescence. All reactions were done at ambient temperature. 20 nM TNKS1 or 5 nM TNKS2 was incubated for 20 h in assay buffer (50 mM BTP, pH 7.0, 0.5 mM TCEP, 0.01% Triton-X100) with compound and 10 μM or 500 nM NAD^+, respectively. […] For ARTD3/PARP3, 20 nM enzyme was incubated for 4 h with compound and 500 nM NAD^+ in assay buffer (50 mM PIPES, pH 7.0, 5 mM MgCl2, 20 μg/mL activated DNA, 0.2 mg/mL BSA). The assay conditions for the other ARTD enzymes were used as previously described.[37]

Setting [6] is: pH 7.4, read-out: Kinetic Solubility pH 7.4.
Where [7] appears, read: A-B, read-out: Caco-2 permeability Papp AB.

In brackets after ≈: the same amount, converted by molar mass. Like-named read-outs stand apart in the source and are kept apart here.

T1 sequence (P08684 whole entry, species assumed): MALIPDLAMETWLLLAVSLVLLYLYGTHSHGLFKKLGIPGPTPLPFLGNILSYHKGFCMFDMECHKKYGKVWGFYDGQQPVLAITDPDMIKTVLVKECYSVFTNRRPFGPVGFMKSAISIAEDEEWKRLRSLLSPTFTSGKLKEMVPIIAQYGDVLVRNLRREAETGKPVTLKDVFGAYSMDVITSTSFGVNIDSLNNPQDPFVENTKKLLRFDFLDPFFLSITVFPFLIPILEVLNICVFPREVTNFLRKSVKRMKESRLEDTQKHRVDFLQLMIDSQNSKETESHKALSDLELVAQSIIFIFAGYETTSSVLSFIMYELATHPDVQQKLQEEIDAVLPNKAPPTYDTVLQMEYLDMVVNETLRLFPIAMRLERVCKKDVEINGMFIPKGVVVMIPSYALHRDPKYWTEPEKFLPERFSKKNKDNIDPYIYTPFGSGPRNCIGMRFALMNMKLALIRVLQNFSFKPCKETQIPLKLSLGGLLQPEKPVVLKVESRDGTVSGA

Take `O=C(Cc1ccccc1)N[C@H]1C[C@H](c2nnc(-c3ccncn3)n2-c2ccccc2Cl)C1` [compound 52]: the activity in words result in data set [1] is “inactive”.
In data set [2] (pH 7.4), `N#Cc1ccc2c(c1)[nH]c(=O)n2[C@H]1C[C@H](c2nnc(-c3ccncn3)n2-c2ccccc2Cl)C1` [compound 1] had a microsomal CLint at 1 μM of 204 µL/min/mg. Moreover, the half-life at 1 μM in data set [2] stood at 7 min. Moreover, in data set [3], the IC50 was > 10 µM. In addition, in the data set “in vivo” (mouse po 5 mg/kg), the CL is 567 mL/min/kg and the Vd is 74.2 L/kg. In the data set “in vivo” (mouse po 5 mg/kg, 5 mg/kg), this molecule displayed a T1/2 of 90 min. For the same molecule, in “in vivo” (mouse, in vivo, po, 5 mg/kg), the AUC(0-inf) was found to be 147 ng·h/mL, the AUC(0-t) worked out at 145 ng·h/mL, the highest level (Cmax) was 124 ng/mL and the MRT inf worked out at 96.6 min. In addition, in the data set “in vivo” (mouse, in vivo, po, 5 mg/kg), the Tmax was 15 min and the bioavailability was 47%. In the data set “in vivo” (mouse, in vivo, po, 5 mg/kg, T1/2, mouse po 5 mg/kg), this molecule had a half-life of 90.6 min. The microsomal CLint at 1 μM in [4] (pH 7.4) came to 242 µL/min/mg. Besides, the half-life at 1 μM in data set [4] was 6 min. In data set [5], this molecule returned a hepatocyte CLint of 9.8 µL/min/1e6 cells. In the data set “kinetic solubility assay” (PBS, pH = 7), this molecule yielded a solubility (kinetic) of 12 µM (≈ 5.63 µg/mL). For the same molecule, in the data set “kinetic solubility assay” (setting [6]), the solubility (kinetic) amounted to 12 µM (≈ 5.63 µg/mL). Moreover, the IC50 on CYP3A4 turned out to be 1.26 µM. The Papp A→B in “Caco-2 permeability” (setting [7]) stood at 10 ×10⁻⁶ cm/s.
`O=C(N[C@H]1C[C@H](c2nnc(-c3ccc(OC(F)F)cn3)n2-c2ccccc2F)C1)c1ccnc2cc(F)cnc12` [compound 35] came in with a solubility in “kinetic solubility assay” (pH 7.4) of 54 µM (≈ 29.7 µg/mL). That is a double-digit micromolar value.
As for `Cn1c(=O)n([C@H]2C[C@H](c3nnc(-c4ccncn4)n3-c3ccccc3Cl)C2)c2ccc(C#N)cc21` [compound 17], the IC50 was 0.034 µM on TNKS2 and 0.116 µM in data set [1].
Take `CN(C(=O)c1ccccn1)[C@H]1C[C@H](c2nnc(-c3ccncn3)n2-c2ccccc2Cl)C1` [compound 44]: the activity in words entry in data set [1] was “inactive”.
On to `N#Cc1ccc2c(c1)[nH]c(=O)n2C12CC(c3nnc(-c4ccncn4)n3-c3ccccc3Cl)(C1)C2` [compound 19, 1-(3-(4-(2-Chlorophenyl)-5-(pyrimidin-4-yl)-4H-1,2,4-triazol-3-yl)bicyclo[1.1.1]pentan-1-yl)-2-oxo-2,3-dihydro-1H-benzo[d]imidazole-5-carbonitrile], for which the microsomal CLint at 0.75 h, 1 µM in [2] (pH 7.4) was determined as 256 µL/min/mg; in data set [4] (pH 7.4), 200 µL/min/mg. For the same molecule, the results for the half-life at 1 μM in data set [2] and in data set [4] were 5 min and 7 min, respectively. Further, the IC50 was 0.0036 µM on TNKS2 and 0.0047 µM in [1]. For the same molecule, in the data set “kinetic solubility assay” (setting [6]), the solubility (kinetic) is 1.5 µM (≈ 0.721 µg/mL). Moreover, the efflux ratio at 2 h, 10 µM in the data set “Caco-2 permeability” worked out at 5.3. The Papp A→B at 2 h, 10 µM in “Caco-2 permeability” (setting [7]) came out at 5 ×10⁻⁶ cm/s.
Consider “3-(trans-3-(4-(2-Chlorophenyl)-5-(pyrimidin-4-yl)-4H-1,2,4-triazol-3-yl)cyclobutyl)isoindolin-1-one [compound 51]”, for which the activity in words entry in data set [1] is “activity was restored”.
Still for that read-out and setting: the result for `N#Cc1ccc2c(c1)[nH]c(=O)n2[C@H]1C[C@H](c2nnc(-c3ccncn3)n2-c2ccccc2C(F)(F)F)C1` [compound 66] reads “comparable activities to the previous lead 1”.
Consider `N#Cc1ccc2c(c1)[nH]c(=O)n2[C@H]1C[C@@H](c2nnc(-c3ccncn3)n2-c2ccccc2Cl)C1` [compound 75], for which, on TNKS2, the potency in words entry is “decreased potency”.
Take `Cc1cccc(-c2nnc([C@H]3C[C@H](NC(=O)c4ccnc5cccnc45)C3)n2-c2ccccc2F)n1` [compound 30]: in “kinetic solubility assay” (pH 7.4), the solubility was > 80 µM.
Consider `N#Cc1ccc2c(c1)oc(=O)n2[C@H]1C[C@H](c2nnc(-c3ccncn3)n2-c2ccccc2Cl)C1` [compound 18, 3-(trans-3-(4-(2-Chlorophenyl)-5-(pyrimidin-4-yl)-4H-1,2,4-triazol-3-yl)cyclobutyl)-2-oxo-2,3-dihydrobenzo[d]oxazole-6-carbonitrile], for which the IC50 on TNKS2 is 0.048 µM; in [1] it was 0.274 µM.
With `Cc1cccc(-c2nnc([C@H]3C[C@H](NC(=O)c4ccnc5cc(F)cnc45)C3)n2-c2ccccc2F)n1` [compound 31], the solubility in “kinetic solubility assay” (pH 7.4) is > 80 µM.
The same measure, in the same setting: the result for `O=C(N[C@H]1C[C@H](c2nnc(-c3ccccn3)n2-c2ccccc2F)C1)c1ccnc2cccnc12` [compound 26] reads > 80 µM.
For `CC(=O)N[C@H]1C[C@H](c2nnc(-c3ccncn3)n2-c2ccccc2Cl)C1` [compound 54], in data set [1], the activity in words entry is “inactive”.
Same read-out and setting: the result for `O=C(N[C@H]1C[C@H](c2nnc(-c3ccncn3)n2-c2ccccc2Cl)C1)C1CCCCC1` [compound 53] reads “inactive”.
In the data set “kinetic solubility assay” (pH 7.4), `O=C(N[C@H]1C[C@H](c2nnc(-c3ccc(OC(F)F)cn3)n2-c2ccccc2F)C1)c1ccnc2cccnc12` [compound 34] yielded a solubility of 14 µM (≈ 7.44 µg/mL).

In general, microsomal CLint refers to the capacity of the preparation to metabolise the compound, expressed as a volume cleared per time. In general, AUC(0-inf) refers to the area under the concentration-time curve extrapolated to infinity. Low values mean low exposure, high ones high exposure. The AUC(0-t) is exposure summed from dosing to a finite time, without extrapolation to infinity. The term Cmax denotes the peak of the concentration-time curve. What is called MRT inf is the average time that molecules of a dose stay in the body. Broadly, the Tmax is the time from dosing to the highest level. The bioavailability is dose-corrected exposure relative to a reference, in per cent. The low end stands for little systemic uptake, the high end for much systemic uptake. Usually hepatocyte CLint stands for the rate of metabolic loss divided by the concentration. In general, solubility (kinetic) refers to solubility judged after dilution from a stock solution rather than from solid. In general, solubility refers to how much of the substance goes into solution per volume. What is called efflux ratio is a quotient of directional permeabilities that is used to spot active efflux.
